Like-named read-outs stand apart in the source and are kept apart here.
Key:
[1] = tested on: interior spruce somatic embryos; type: in vivo, Picea glauca (Moench) Voss x P. engelmannii Parry ex Engelm.
From the text: The second study assessed the effects adding various osmotica to nutripriming solutions on subsequent germination and development performance. Mature somatic embryos of interior spruce (Picea glauca (Moench) Voss x P. engelmannii Parry ex Engelm.) genotype 23-2672 were desiccated with the HRHT treatment, and then divided into 10 groups of 160 somatic embryos per group. One group was not primed and served as the HRHT control treatment for this study. […] The nutripriming solutions and embryos were placed into 250-ml Kimax® baffled flasks. The nutripriming duration was 72 hrs at temperatures ranging between 20-23° C., and a 24-hr photoperiod of 30 μmol m^−2s^−1 photosynthetic photon flux.
At the completion of the nutripriming step, the nutriprimed embryos from each treatment were divided into 8 groups of 20 embryos and sown by hand onto vermiculite media in Sigma polycarbonate boxes. The liquid media in these germination boxes were either 3% w/v sucrose m24GMD or m24GMD without sucrose. The experiment design was a random complete block design for each media type. Each nutripriming treatment had 4 replicates of 20 embryos in each germination media type. The germination boxes were placed in a germination room and grown for two weeks under 50-70 μmol m^−2s^−1 photosynthetic photon flux of 16-hour photoperiod at an air temperature of 23° C. The germinants were then harvested and assessed for germination rates, hyperhydricity rates, shoot and root length. Germination was defined as germinants having a root longer than 2 mm, and elongated hypercotyl. Hyperhydricity was defined by the thickening of hypercotyl and watery appearance of the germinants, whether germinated or not germinated.

[2] = tested on: interior spruce somatic embryos; assay: Elevated sucrose levels (4-10% w/v) and extended nutripriming (3-5 days): ex vitro germination and growth of interior spruce genotypes 5-1378 and 107-2049; type: in vivo, Picea glauca (Moench) Voss x P. engelmannii Parry ex Engelm.
Description: Mature somatic embryos of interior spruce (Picea glauca (Moench) Voss x P. engelmannii Parry ex Engelm.) genotypes 5-1378 and 107-2049 t were desiccated with the HRHT treatment and stored at 4° C. Embryos were subsequently removed from storage and nutriprimed for one of 3, 4, or 5 days periods as previously described in ½ m24GMD liquid medium containing one of the following sucrose concentrations; 4, 6, 8, and 10% (all w/v). After the nutripriming treatments were completed, the embryos were sown ex vitro onto a peat-based polymer-bound horticultural growing substrate in 504-cell (4 ml/cell) styrofoam miniplug trays (Grow-Tech Inc., San Bautista, Calif.). The sown trays were then placed into a conventional non-sterile horticulture germination chamber in an environment-controlled growth room. The environmental conditions were 22-24° C. air temperature, 80-100% RH, 0.10-0.15% CO2, and a 16-hr photoperiod with 40-120 μmol m^−2s^−1 photosynthetic photon flux. Immediately after the trays containing ex vitro sown nutriprimed embryos were placed into the non-sterile germination chamber, they were misted with a ½ m24GMD nutrient solution amended with 3% w/v sucrose solution until the surfaces of the non-sterile growing substrates were well-wetted. Subsequently, the trays were misted with this solution daily for a 3-week germination period. Aseptic techniques or conditions were not used for application of the nutrient solutions, nor for the germination environment during the 2-week culture period. Furthermore, prophylactic applications of 0.1 g/l benlate, 0.05 g/l ampicillin plus 0.05 g/l penicillin G (or 0.1 ampicillin), and 5 ml/l Gnatrol® were applied at 5-day intervals to control fungi, bacteria, and fungus fly larvae.

[3] = germination media m24GMD (without sucrose), osmoticant levels as E220
[4] = germination media m24GMD plus 3% sucrose, osmoticant levels as E220
[5] = genotype 5-1378, 3% sucrose in nutripriming solution, 3 days priming
[6] = genotype 5-1378, 4% sucrose in nutripriming solution, 3 days priming
[7] = genotype 5-1378, 4% sucrose in nutripriming solution, 4 days priming
[8] = genotype 5-1378, 4% sucrose in nutripriming solution, 5 days priming
[9] = genotype 5-1378, 6% sucrose in nutripriming solution, 3 days priming
[10] = genotype 5-1378, 6% sucrose in nutripriming solution, 4 days priming
[11] = genotype 5-1378, 6% sucrose in nutripriming solution, 5 days priming
[12] = genotype 5-1378, 8% sucrose in nutripriming solution, 3 days priming
[13] = genotype 5-1378, 8% sucrose in nutripriming solution, 4 days priming
[14] = genotype 5-1378, 8% sucrose in nutripriming solution, 5 days priming
[15] = genotype 5-1378, 10% sucrose in nutripriming solution, 3 days priming
[16] = genotype 5-1378, 10% sucrose in nutripriming solution, 4 days priming
[17] = genotype 5-1378, 10% sucrose in nutripriming solution, 5 days priming
[18] = genotype 107-2049, 3% sucrose in nutripriming solution, 3 days priming
[19] = genotype 107-2049, 4% sucrose in nutripriming solution, 3 days priming
[20] = genotype 107-2049, 4% sucrose in nutripriming solution, 4 days priming
[21] = genotype 107-2049, 4% sucrose in nutripriming solution, 5 days priming
[22] = genotype 107-2049, 6% sucrose in nutripriming solution, 3 days priming
[23] = genotype 107-2049, 6% sucrose in nutripriming solution, 4 days priming
[24] = genotype 107-2049, 6% sucrose in nutripriming solution, 5 days priming
[25] = genotype 107-2049, 8% sucrose in nutripriming solution, 3 days priming
[26] = genotype 107-2049, 8% sucrose in nutripriming solution, 4 days priming
[27] = genotype 107-2049, 8% sucrose in nutripriming solution, 5 days priming
[28] = genotype 107-2049, 10% sucrose in nutripriming solution, 3 days priming
[29] = genotype 107-2049, 10% sucrose in nutripriming solution, 4 days priming
[30] = genotype 107-2049, 10% sucrose in nutripriming solution, 5 days priming

OC[C@H]1O[C@@](CO)(O[C@H]2O[C@H](CO)[C@@H](O)[C@H](O)[C@H]2O)[C@@H](O)[C@@H]1O [sucrose]
Germination % [1, 3]: 91.7 ± 8.3%
Root length [1, 3]: 2.4 ± 0.1 mm
Shoot length [1, 3]: 14.7 ± 0.3 mm
Germination % ([1]; germination media m24GMD plus 3% sucrose, osmoticant in m24GMD priming solution (w/v): 1% betaine, 1.65% fructose, glucose, mannitol, sorbitol, 3% lactose, maltose, sucrose, 10% PEG 4000, 72 hrs): 100%
Root length [1, 4]: 11.6 ± 0.9 mm
Shoot length [1, 4]: 18.1 ± 0.4 mm
% with hyperhydricity ([1]; in vivo): 40.0 ± 23.2%
Germination % [2, 5]: 83.3 ± 8.8%
Rooting % [2, 5]: 73.3 ± 8.8%
Germination % [2, 6]: 98.3 ± 1.7%
Rooting % [2, 6]: 86.7 ± 7.3%
Germination % [2, 7]: 96.7 ± 3.3%
Rooting % [2, 7]: 91.7 ± 4.4%
Germination % [2, 8]: 96.5 ± 1.8%
Rooting % [2, 8]: 91.5 ± 6.0%
Germination % [2, 9]: 91.7 ± 4.4%
Rooting % [2, 9]: 86.7 ± 3.3%
Germination % [2, 10]: 96.7 ± 3.3%
Rooting % [2, 10]: 90.0 ± 2.9%
Germination % [2, 11]: 98.3 ± 1.7%
Rooting % [2, 11]: 88.3 ± 4.4%
Germination % [2, 12]: 91.7 ± 4.4%
Rooting % [2, 12]: 66.7 ± 12.0%
Germination % [2, 13]: 100%
Rooting % [2, 13]: 91.7 ± 3.3%
Germination % [2, 14]: 95.0 ± 5.0%
Rooting % [2, 14]: 86.7 ± 8.3%
Germination % [2, 15]: 84.7 ± 2.9%
Rooting % [2, 15]: 52.5 ± 7.2%
Germination % [2, 16]: 100%
Rooting % [2, 16]: 88.3 ± 6.0%
Germination % [2, 17]: 98.3 ± 1.7%
Rooting % [2, 17]: 91.7 ± 4.4%
Germination % [2, 18]: 91.7 ± 4.4%
Rooting % [2, 18]: 68.3 ± 6.0%
Germination % [2, 19]: 90.0 ± 5.0%
Rooting % [2, 19]: 71.7 ± 8.8%
Germination % [2, 20]: 84.6 ± 6.2%
Rooting % [2, 20]: 62.3 ± 13.0%
Germination % [2, 21]: 93.3 ± 6.7%
Rooting % [2, 21]: 76.2 ± 4.5%
Germination % [2, 22]: 81.7 ± 3.3%
Rooting % [2, 22]: 66.7 ± 3.3%
Germination % [2, 23]: 85.8 ± 2.2%
Rooting % [2, 23]: 69.6 ± 6.1%
Germination % [2, 24]: 86.7 ± 3.3%
Rooting % [2, 24]: 70.0 ± 0.0%
Germination % [2, 25]: 76.7 ± 4.4%
Rooting % [2, 25]: 51.7 ± 4.4%
Germination % [2, 26]: 93.3 ± 4.4%
Rooting % [2, 26]: 88.3 ± 4.4%
Germination % [2, 27]: 93.3 ± 4.4%
Rooting % [2, 27]: 60.0 ± 0.0%
Germination % [2, 28]: 81.7 ± 6.7%
Rooting % [2, 28]: 36.7 ± 10.1%
Germination % [2, 29]: 90.0 ± 7.6%
Rooting % [2, 29]: 76.7 ± 8.3%
Germination % [2, 30]: 86.7 ± 1.7%
Rooting % [2, 30]: 51.7 ± 12.0%
